Results: ChEMBL document CHEMBL1133364, “Synthesis and activity of selective MMP inhibitors with an aryl backbone” (Bioorg Med Chem Lett, 2000)

Assays:
[1] = molecular target: 72 kDa type IV collagenase (Homo sapiens, UniProt P08253)
Collagenase 3 = Collagenase 3 (Homo sapiens, UniProt P45452)
Interstitial collagenase = molecular target: T1, Interstitial collagenase (Homo sapiens, UniProt P03956); test: 50 percent inhibition of human Matrix metalloprotease-1 by the cleavage of fluorogenic peptide MCA-Pro-Leu-Gly-Leu-Dpa-ala-Arg-NH2
T1 sequence (P03956 whole entry): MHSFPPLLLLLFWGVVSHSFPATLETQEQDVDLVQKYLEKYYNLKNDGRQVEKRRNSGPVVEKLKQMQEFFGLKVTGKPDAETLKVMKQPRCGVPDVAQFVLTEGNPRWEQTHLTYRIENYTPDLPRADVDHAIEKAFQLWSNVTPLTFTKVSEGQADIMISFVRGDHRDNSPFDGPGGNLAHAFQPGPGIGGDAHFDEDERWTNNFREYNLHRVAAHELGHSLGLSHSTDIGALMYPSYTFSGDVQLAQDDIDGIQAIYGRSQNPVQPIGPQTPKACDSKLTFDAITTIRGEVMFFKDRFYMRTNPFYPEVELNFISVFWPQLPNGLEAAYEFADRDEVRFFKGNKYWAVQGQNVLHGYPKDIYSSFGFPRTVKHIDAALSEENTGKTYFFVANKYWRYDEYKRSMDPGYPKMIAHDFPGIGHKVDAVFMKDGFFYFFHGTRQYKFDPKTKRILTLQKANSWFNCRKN

72 kDa type IV collagenase, sequence (P08253 whole entry): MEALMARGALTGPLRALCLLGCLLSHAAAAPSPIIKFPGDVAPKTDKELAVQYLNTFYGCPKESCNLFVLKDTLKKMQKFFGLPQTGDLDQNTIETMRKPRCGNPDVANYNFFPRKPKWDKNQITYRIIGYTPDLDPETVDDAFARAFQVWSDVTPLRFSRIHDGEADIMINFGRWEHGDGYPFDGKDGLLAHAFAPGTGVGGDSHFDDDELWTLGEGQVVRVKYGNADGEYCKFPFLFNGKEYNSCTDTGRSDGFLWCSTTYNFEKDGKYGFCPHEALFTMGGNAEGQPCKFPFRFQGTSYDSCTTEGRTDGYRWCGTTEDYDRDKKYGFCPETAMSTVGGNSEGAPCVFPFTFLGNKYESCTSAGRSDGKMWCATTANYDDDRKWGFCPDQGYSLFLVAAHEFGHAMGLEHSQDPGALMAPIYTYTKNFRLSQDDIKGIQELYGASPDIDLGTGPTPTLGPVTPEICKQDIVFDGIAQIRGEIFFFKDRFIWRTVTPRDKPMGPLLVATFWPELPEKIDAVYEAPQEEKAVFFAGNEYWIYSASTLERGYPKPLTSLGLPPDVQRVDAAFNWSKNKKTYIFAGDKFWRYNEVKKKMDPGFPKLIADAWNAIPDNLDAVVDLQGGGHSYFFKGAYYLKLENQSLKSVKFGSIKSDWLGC

| SMILES | IC50 [1] [nM] | IC50 (Collagenase 3) [nM] | IC50 (Interstitial collagenase) [µM] |
| --- | --- | --- | --- |
| O=C(NO)c1c(F)cccc1S(=O)(=O)N1CCC(Oc2ccc(C(F)(F)F)cc2)CC1 | 3.3 |  |  |
| O=C(NO)c1ccccc1S(=O)(=O)N1CCC(c2ccccc2)CC1 | 70 | 520 |  |
| COc1ccc(C(=O)NC2CCN(S(=O)(=O)c3ccccc3C(=O)NO)C2)cc1 (single isomer, unassigned; (-)) |  |  | > 10 |
| O=C(NO)C1(CS(=O)(=O)c2ccc(Oc3ccc(Cl)cc3)cc2)CCOCC1 [CTS-1027] |  |  | 0.8 |
| O=C(NO)c1ccccc1S(=O)(=O)N1CCC(Oc2ccc(OC(F)(F)F)cc2)CC1 | 2 |  |  |

The remaining lines, values ahead:

| IC50 [1] [nM] | IC50 (Collagenase 3) [nM] | IC50 (Interstitial collagenase) [µM] | SMILES |
| --- | --- | --- | --- |
|  | 28 |  | O=C(NO)c1ccccc1S(=O)(=O)N1CCC(Oc2ccc(C(F)(F)F)cc2)CC1 |
|  |  | > 10 | O=C(NO)c1ccccc1S(=O)(=O)N1CCC(Oc2ccc(C(F)(F)F)cc2)C1 (stereo not drawn) |
